Reference: patent publication US6194465A, “Benzamide therapeutics for the treatment of inflammatory bowel disease” (priority 1999, dated 2001)

Legend:
bcl-2 = assay: TNF-α induced reduction in bcl-2 (ELISA); type: cell-based; conditions: Compound A 100 μM (printed 100 EM); TNF-α 0.3 or 3.0
Description: Cytokine mediated apoptosis or programmed cell death is believed to be involved in a number of diseases including IBD. Reductions in bcl-2 are a major signal in initiation of the apoptotic cascade (see Jourd'heuil et al., J. Clin Gastroenterol. 25(Suppl):S61-S72 (1997)). The purpose of this study is to investigate the effects of Compound A on bcl-2 protein levels in a cellular model of cytokine mediated apoptosis.
SK-N-MC cells (American Type Culture Collection, Rockville, Md.) were plated at 500,000 cells/plate and treated with retinoic acid ("RA") (5 μM) for 5 days. Following RA treatment, the cells were incubated with Compound A (100 μM) for 1 hour. Cells were then treated with increasing concentrations of TNF-α (0, 0.3 and 3 ng/mL) for 6 h. The cells were harvested and lysed and bcl-2 was measured in the lysate using an ELISA assay (Boehringer Manheim). Quantification of bcl-2 was based on a standard curve and results are expressed as units/mL of bcl-2 in the sample. Results represent mean ±SE for 3 separate cultures.

[1] = Plasma concentration time course after oral administration; type: in vivo, rats
[2] = system: adjuvant induced arthritis; assay: Rat adjuvant induced arthritis model of chronic inflammation; type: in vivo; conditions: Compound A 100 mg/kg po or dexamethasone 0.1 mg/kg, daily 7 days, vs adjuvant
Description: Confirmation of the anti-inflammatory activity of Compound A was sought in another related biological test-the rat adjuvant induced arthritis model of chronic inflammation. This model was selected because almost all of the anti-IBD agents also show efficacy in standard arthritis models. In this model Compound A was tested at 100 mg/kg, po in a 1 % methyl cellulose suspension. On day 0 all animals received an injection of either Mycobacterium butyricum (100μL, 20 mg/mL in mineral oil) or mineral oil in the base of the tail. 14 days after this injection, rat paws were measured and all the rats were randomized into 3 treatment groups of 8. A control adjuvant group (group without further treatment), a group to be treated with dexamethasone (steroid reference) and a group to treated with Compound A. Rats received Compound A 100 mg/kg, po, or dexamethasone 0.1 mg/kg, op, daily until day 21 (7 days dosing). On day 21 rats were sacrificed. Paw measurements were taken after 5 and 7 days treatment.

SK-N-MC cells = assay: TNF-α induced flux of reactive oxygen species (DCF fluorescence); type: cell-based; conditions: 100 μM test compound, TNF-α 3.0 ng/mL
Description: Oxidative stress agents (OSA) are thought to be involved in cell death in IBD and are key initiator in the cascade of events leading to apoptosis. The purpose of this study is to evaluate the effect of Compound A on cytokine-induced OSA flux.
To visualize OSA, the dye dihydrodichlorofluorescein diacetate is used. This non-fluorescent dye is taken up by cells and deacetylated to its non-fluorescent congener dihydrodichlorofluorescein (H2 DCF), which is trapped within cells. Reactive oxygen species ("ROS") react with H2 DCF, converting it to the highly fluorescent DCF. DCF fluorescence can be measured spectrofluorometrically and can also be visualized in intact cells using fluorescent microscopy.
SK-N-MC cells (American Type Culture Collection, Rockville, Md.) were plated at 250,000 cells/well in 24-well Corning plates. Following plating, the cells were maintained in retinoic acid medium (5 μM) for five days and then treated with at test compound at 100 μM for 1 hour prior to TNF-α (3.0 ng/mL) treatment. […] Following incubation, cultures were read in a cytofluorometer at 485-530 nm wavelength to detect increased DCF formation. Relative fluorescence units (RFU) values for the respective treatment conditions were compared. In this assay, higher fluorescence readings indicate ROS production. Thus, reductions in fluorescence indicates reduction in ROS production.

[3] = PK parameter estimates, 30 mg/kg po (Table 1); type: in vivo, rats; conditions: additional series of bioavailability experiments
Description: The bioavailability of compound N is depicted in FIG. 10 as well. |(NRTs Dosed 30 mg/kg po in 1% Methyl Cellulose, n = 3 rats/NRT)

DSS-induced colitis = assay: Dose-response in the Mouse Dextran Sulfate (DSS) model; type: in vivo
Description: To determine the dose-response relationship of Compound A in the DSS Mouse Model, the following procedure was used.
Experimental conditions and statistical analyses were the same as the Mouse Dextran Sulfate IBD Model, except four groups of mice (n=8-10/group) were used. Animals were dosed orally with either Compound A (3, 10 or 30 mg/kg) or vehicle alone. In addition, the following procedure was introduced to evaluate the histology in the animals:
5-6 slices/segment with 15-18 total pieces/colon
Score for extent of damage: 0=1-25% involvement, 1=26-50% involvement,
0=intact crypt, 1=loss of 1/3 crypt, 2=loss of 2/3 crypt, 3=loss of entire crypt with surface epithelium intact, 4=loss of entire crypt and erosion of surface epithelium
0=normal, 1=focal inflammatory cell infiltrate including PMNs, 2=inflammatory cell infiltration, gland dropout and crypt abscess, 3=mucosal ulceration
Single, evaluator (qualified pathologist) blinded to the treatment conditions.

[4] = system: Myeloperoxidase (MPO) activity; assay: MPO activity of colon tissue in TNBS model (IV dosing); type: in vivo, Male Sprague-Dawley rats
Description: Male Sprague-Dawley rats (200-250 g) were housed in standard cages (2 per cage) and fed rat chow and tap water ad libitum. After an overnight fast, rats were brought into the laboratory and randomized into treatment groups. Colitis was induced by intrarectal administration of 0.5 ml of TNBS solution (50 mg/kg in 50% ethanol) using a 1 ml syringe attached to a 5 cm polyethylene catheter. Control animals received saline (0.9%) or a 1 % methyl cellulose suspension at identical time points.
Myeloperoxidase ("MPO") activity is measured as an index of the intensity of the inflammatory response. In order to determine the MPO activity, a blind study of 300 mg samples of colon tissue were analyzed. This assay uses the spectrophotometric method of Castro et al.
For PO (oral) dosing, Compound A was administered by oral gavage 30 mg/kg as a 1% carboxy methyl cellulose ("CMC") suspension 1 hour prior to the administration of TNBS. Control rats were given CMC only. For IV (intravenous) dosing, Compound A was administered 30 mg/kg by tail vein injection in a 75% PEG/25 % water solution 1 hour prior to administration of TNBS. Control rats were given an injection of 75% PEG/25 % water only. Six rats were dosed for each route of administration.
MPO activity measurements were performed only for samples from the IV administration.

CC(=O)Nc1ccc(C(=O)NC(C)(C)C)cc1 [Compound A, N-tert-butyl-4-acetamidobenzamide]
bcl-2 reduction induced by TNF-α (bcl-2): prevented bcl-2 reduction
lower plasma levels in animals dosed 4 hours before TNBS ([1]; > 6 hours after TNBS, vs dosing 1 hour before): approximately 30%
time after which plasma concentrations begin to decline ([1]; following oral administration): > 7 h
Tmax ([1]; rat, plasma, following oral administration, read-out: time of peak plasma concentration): 3 to 4 h
inhibition of the inflammatory response [2]: significant inhibition of the inflammatory response (p<0.005)
ROS induction by TNF-α (SK-N-MC cells): significantly reduced these effects
bioavailability (in words) [3]: excellent bioavailability
protective effect, significance by day (DSS-induced colitis; oral): statistically significant on days 3, 4, 5 and 7
DAI score, protective effect (in words) (DSS-induced colitis; oral, 3, 10 or 30 mg/kg): marked dose-dependent protective effect
DAI score, significance by dose (DSS-induced colitis; oral, 3, 10 or 30 mg/kg): statistically significant at 30 mg/kg
MPO values (in words), dose-response study (DSS-induced colitis; oral, 3, 10 or 30 mg/kg): the protection was not statistically significant
wet weight (in words), dose-response study (DSS-induced colitis; oral, 3, 10 or 30 mg/kg): the protection was not statistically significant
protection from TNBS insult as measured by MPO activity (in words) ([4]; IV): provided protection from the TNBS insult
MPO Activity ([4]; IV treatment, 30 mg/kg, TNBS model): 1.77 ± 0.53 units/mg
